Patent publication US10426773B2, “Systems pharmacology for treating ocular disorders” (Case Western Reserve Univeristy, priority 2011, dated 2019)
“Also recorded” adds a separate entry of the source. Structures can show the parent of a compound that is named as a salt.

Experiments:
[1] = system: ROS generation in photoreceptors of Abca4−/−Rdh8−/− mice; test: In vivo detection of ROS (DHE probe) in retinas of light-exposed Abca4−/−Rdh8−/− mice; set-up: species or system mouse; conditions: Example 1; pretreatment before light 10,000 lux 30 min; retinas 3 h after illumination
Method: The ROS probe, DHE, at a dose of 20 mg/kg body weight was administered to Abca4^−/−Rdh8^−/− mice via intraperitoneal injection 30 min prior to light exposure. Eye cups obtained after removing the cornea, lens and vitreous body from enucleated eye globes 3 h post light illumination were fixed in 4% paraformaldehyde. Cryosections were prepared from fixed eye cups and cut at 12 am thickness for microscopic assessment of ROS signal fluorescence in the retina.
The ROS probe, DHE, at a dose of 20 mg/kg body weight in 25 μl of DMSO, was administered to Abca4^−/−Rdh8^−/− mice via intraperitoneal injection 1 h prior to light exposure. Eye cups obtained after removing the cornea, lens, and vitreous body from enucleated eye globes 3 h post light illumination were fixed in 4% paraformaldehyde. Cryosections were prepared from fixed eye cups and cut at 12-am thickness for microscopic assessment of ROS fluorescence in the retina with ImageJ software (National Institutes of Health).

Abca4−/−Rdh8−/− mice [2] = test: Bright light-induced retinal degeneration in Abca4−/−Rdh8−/− mice, retinal histology and immunohistochemistry; format: in vivo, mouse; conditions: pretreatment before light 10,000 lux 30 min; 7-10 days after light exposure
Method: Retinal histology and immunohistochemistry (IHC) was performed as previously described. Briefly, eye cups free of cornea, lens and vitreous body were fixed in 2% glutaraldehyde/4% paraformaldehyde and processed for Epon embedding. Sections 1 am thick were cut and stained with toluidine blue for histological examination under a light microscope. IHC analysis was performed on 12 am thick cryosections prepared from 4% paraformaldehyde-fixed eye cups. Collected cryosections were subjected to examination for rhodopsin, PNA and DAPI expression.
Retinal immunohistochemistry (IHC) was carried out as previously described. Briefly, eyes were enucleated and eye cups were made to eliminate cornea, lens and vitreous body and fixed in 4% paraformaldehyde and processed for cryosectioning. 12 am thick cryosections were collected cryosections and subjected to examination for rhodopsin, peanut agglutinin lectin (PNA) and DAPI expression.
Retinal immunohistochemistry (IHC) was performed as previously described. Briefly, eyes were enucleated and, after removal of the cornea, lens and vitreous body, eye cups were fixed in 4% paraformaldehyde and processed for cryosectioning. Twelve μm thick cryosections were cut, collected and examined for rhodopsin expression, peanut agglutinin lectin (PNA) for cone sheath and nuclear DAPI staining. […]

Abca4−/−Rdh8−/− mice [3] = test: Bright light-induced retinal degeneration in Abca4−/−Rdh8−/− mice, ERG retinal function; conditions: pretreatment before light 10,000 lux 30 min, ERG 7 days to 2 weeks after
Abca4−/−Rdh8−/− mice [4] = test: Bright light-induced retinal degeneration in Abca4−/−Rdh8−/− mice, OCT imaging of retinal structure; format: in vivo, mouse; conditions: for retinal / photoreceptor morphology by OCT imaging: pretreatment before light 10,000 lux 30 min, OCT 7 days after light exposure; for Percent of mice with: subeffective doses BRM 0.1, MTP 1, TAM 0.05, DOX 1 mg/kg bw, OCT 7 days; for Effect (effectiveness at preventing light-induced photoreceptor degeneration as measured by OCT imaging): ip, dose of each compound in column Dose of Table 1
[5] = system: retinal transcriptome of Abca4−/−Rdh8−/− mice; test: RNA-seq retinal transcriptome of pretreated, light-exposed Abca4−/−Rdh8−/− mice (differential expression, Pearson, GSEA); format: in vivo, mouse
Abca4−/−Rdh8−/− mice [6] = test: Bright light-induced retinal degeneration in Abca4−/−Rdh8−/− mice, SLO autofluorescence imaging; format: in vivo, mouse; conditions: pretreatment before light 10,000 lux 30 min; SLO 8-9 days after light exposure
Method: SLO (Heidelberg Engineering, Heidelberg, Germany) was carried out for whole fundus imaging of mouse retinas. Mice were anesthetized by intraperitoneal injection of anesthetic cocktail indicated above, which was followed by pupil dilation using 1% tropicamide prior to SLO imaging under autofluorescence mode.
SLO (Heidelberg Engineering) was carried out for in vivo whole fundus imaging of mouse retinas. […] Numbers of autofluorescent spots were counted and subjected to statistical analyses as described below.
SLO (Heidelberg Engineering) was carried out for whole fundus imaging of mouse retinas in vivo. Mice were anesthetized, and their pupils were dilated as described above. SLO images were then acquired in the autofluorescence mode.

ARPE19 cells = test: In vitro detection and quantification of intracellular ROS in ARPE19 cells (DCF-DA / DHE probes); format: cell-based, human; conditions: retinoid applied to cultured ARPE19 cells, ROS probe DCF-DA or DHE
Method: ARPE19 cells were cultured in Dulbecco's Modified Eagle's Medium (DMEM) (low glucose) supplemented with 10% fetal bovine serum. The ROS probes, 2′,7′-dichlorofluorescein diacetate (DCF-DA, Sigma, St. Louis, Mo.) or dihydroethidium (DHE, Invitrogen Corporation, Carlsbad, Calif.) were added after indicated pretreatments and incubated at 37° C. for 10-min before thorough washing in PBS and the ROS signals were subsequently observed at the same exposure setting under an inverted fluorescence microscope (Leica DMI 6000 B). Fluorescence quantification was performed with Metamorph imaging software (Molecular Devices, Downington, Pa.). Thresholds corresponding to fluorescent signals were set from the images and average fluorescence intensities were recorded for statistical analysis.

[7] = GSEA, vehicle-treated light-exposed retinas against drug-treated

CC(C)C[C@H](CN)CC(=O)O (single isomer, unassigned) [R and S enantiomer of pregabalin, pregabalin]
ROS production in the ONL / photoreceptors (DHE signal) [1]: also consistently observed

C[N+]1(C)CCC(OC(=O)C(c2ccccc2)c2ccccc2)CC1.[I-] [4-DAMP, 1,1-dimethyl-4-diphenylacetoxypiperidinium iodide]
retinal histology / immunohistochemistry (rhodopsin, PNA, DAPI; ONL) (Abca4−/−Rdh8−/− mice [2]): preserve retinal morphology
retinal function by ERG (a-wave and b-wave amplitudes) (Abca4−/−Rdh8−/− mice [3]): protective effect

CCCN(CCC)C1CCc2cccc(O)c2C1 (centres unmarked) [8-OH-DPAT, 8-hydroxy-N,N-dipropyl-2-aminotetralin]
retinal / photoreceptor morphology by OCT imaging (Abca4−/−Rdh8−/− mice [4]): protective effect; also recorded: dose-dependent

CC(C)C[C@H]1C(=O)N2CCC[C@H]2[C@]2(O)O[C@](NC(=O)[C@@H]3C=C4c5cccc6[nH]c(Br)c(c56)C[C@H]4N(C)C3)(C(C)C)C(=O)N12 [BRM, 2-Bromo-α-ergocryptine methanesulfonate salt]
Percent of mice with (Abca4−/−Rdh8−/− mice [4]; Table 14 (complete protection, ONL ≥50 μm)): 16.7% of mice
Percent of mice with (Abca4−/−Rdh8−/− mice [4]; Table 14 (no protection, ONL ≤20 μm)): 66.7% of mice
light-exposed mice with complete retinal protection (Abca4−/−Rdh8−/− mice [4]; lower doses BRM 0.1, MTP 1, TAM 0.05 mg/kg bw, alone or all three combined): 17%
NES, CHEMOKINE SIGNALING gene set [5, 7]: 1.67
NES, CYTOKINE- RECEPTOR INTERACTIO gene set [5, 7]: 2.31
NES, P53 gene set [5, 7]: 2.06
NES, TOLL-LIKE SIGNALING gene set [5, 7]: 2.20
NES, APOPTOSIS gene set ([5]; GSEA, vehicle-treated light-exposed retinas against drug-treated, P in brackets not reported here): 1.75
number of light-up-regulated gene sets significantly down-regulated (GSEA) ([5]; of 44 gene sets up-regulated by light, mono doses BRM 1, MTP 10, TAM 2.5, DOX 10 mg/kg bw): 29 gene sets

c1ccc([I+]c2ccccc2)cc1 [DPI, diphenyliodonium]
retinal / photoreceptor morphology by OCT imaging (Abca4−/−Rdh8−/− mice [4]): well-preserved retinal morphology
retinal histology / immunohistochemistry (rhodopsin, PNA, DAPI; ONL) (Abca4−/−Rdh8−/− mice [2]): nearly intact retinal morphology
retinal function by ERG (a-wave and b-wave amplitudes) (Abca4−/−Rdh8−/− mice [3]): protective effect

Cl.N=C(N)NC(=O)Cc1c(Cl)cccc1Cl [Guanfacine]
retinal / photoreceptor morphology by OCT imaging (Abca4−/−Rdh8−/− mice [4]): significantly prevented
retinal histology / immunohistochemistry (rhodopsin, PNA, DAPI; ONL) (Abca4−/−Rdh8−/− mice [2]): substantially preserved photoreceptor morphology
retinal autofluorescence spots by SLO imaging (Abca4−/−Rdh8−/− mice [6]): markedly less autofluorescence spots

c1ccc2c(c1)OCC(C1=NCCN1)O2 (centres unmarked) [IDA, idazoxan]
effect on the protective action of GUB (Abca4−/−Rdh8−/− mice [4]; IDA 2.5 and 5 mg/kg BW first, then GUB 2 mg/kg BW, FIG. 25D): totally abolished the protective action

CC(C)n1cc2c3c(cccc31)[C@H]1C[C@@H](C(=O)N[C@H]3CCC[C@H]3O)CN(C)[C@@H]1C2 [LY 215840, (8β)-N-[(1S,2R)-2-Hydroxycyclopentyl]-1-isopropyl-6-methylergoline-8-carboxamide]
retinal / photoreceptor morphology by OCT imaging (Abca4−/−Rdh8−/− mice [4]): profound preservation of photoreceptor morphology
retinal histology / immunohistochemistry (rhodopsin, PNA, DAPI; ONL) (Abca4−/−Rdh8−/− mice [2]): substantially preserved photoreceptor morphology
retinal autofluorescence spots by SLO imaging (Abca4−/−Rdh8−/− mice [6]): significantly reduced formation of autofluorescence spots
retinal function by ERG (a-wave and b-wave amplitudes) (Abca4−/−Rdh8−/− mice [3]; listed as LY): substantial preservation of the scotopic ERG response; also recorded: substantial preservation of this response

CC(Oc1c(Cl)cccc1Cl)C1=NCCN1.Cl (centres unmarked) [Lofexidine]
retinal / photoreceptor morphology by OCT imaging (Abca4−/−Rdh8−/− mice [4]): significantly prevented
retinal autofluorescence spots by SLO imaging (Abca4−/−Rdh8−/− mice [6]): markedly less autofluorescence spots
retinal function by ERG (a-wave and b-wave amplitudes) (Abca4−/−Rdh8−/− mice [3]; listed as LOF): substantial preservation of the scotopic ERG response; also recorded: substantial preservation of this response

COc1cc2nc(N3CCN(C(=O)c4ccco4)CC3)nc(N)c2cc1OC.Cl [Prazosin]
retinal / photoreceptor morphology by OCT imaging (Abca4−/−Rdh8−/− mice [4]): substantial protection on photoreceptor morphology
retinal histology / immunohistochemistry (rhodopsin, PNA, DAPI; ONL) (Abca4−/−Rdh8−/− mice [2]): substantially preserved photoreceptor morphology
retinal autofluorescence spots by SLO imaging (Abca4−/−Rdh8−/− mice [6]): significantly protected retinas from developing light-induced damage

COc1cc(N)c(Cl)cc1C(=O)OCCCN1CCCCC1.Cl [RS 23579-190]
retinal / photoreceptor morphology by OCT imaging (Abca4−/−Rdh8−/− mice [4]): profound preservation of photoreceptor morphology
retinal histology / immunohistochemistry (rhodopsin, PNA, DAPI; ONL) (Abca4−/−Rdh8−/− mice [2]): substantially preserved photoreceptor morphology
retinal autofluorescence spots by SLO imaging (Abca4−/−Rdh8−/− mice [6]): significantly reduced formation of autofluorescence spots
retinal function by ERG (a-wave and b-wave amplitudes) (Abca4−/−Rdh8−/− mice [3]; listed as RS): substantial preservation of the scotopic ERG response; also recorded: substantial preservation of this response

CC1=C(/C=C/C(C)=C/C=C/C(C)=C/CN)C(C)(C)CCC1 [Ret-NH2, all-trans-retinylamine]
ROS production in the ONL / photoreceptors (DHE signal) [1]: significantly decreased ROS production

CNc1cc(NS(=O)(=O)c2ccc(N)cc2)nc(NC)n1 [Ro 04-6790, 4-Amino-N-[2,6-bis(methylamino)-4-pyrimidinyl]benzenesulfonamidev]
retinal / photoreceptor morphology by OCT imaging (Abca4−/−Rdh8−/− mice [4]): profound preservation of photoreceptor morphology
retinal histology / immunohistochemistry (rhodopsin, PNA, DAPI; ONL) (Abca4−/−Rdh8−/− mice [2]): substantially preserved photoreceptor morphology
retinal autofluorescence spots by SLO imaging (Abca4−/−Rdh8−/− mice [6]): significantly reduced formation of autofluorescence spots
retinal function by ERG (a-wave and b-wave amplitudes) (Abca4−/−Rdh8−/− mice [3]; listed as RO): substantial preservation of the scotopic ERG response; also recorded: substantial preservation of this response

CC1CCN(CC[C@H]2CCCN2S(=O)(=O)c2cccc(O)c2)CC1.Cl [SB 269970, 3-({(2R)-2-[2-(4-Methyl-1-piperidinyl)ethyl]-1-pyrrolidinyl}sulfonyl)phenol hydrochloride (1:1)]
retinal / photoreceptor morphology by OCT imaging (Abca4−/−Rdh8−/− mice [4]): profound preservation of photoreceptor morphology
retinal autofluorescence spots by SLO imaging (Abca4−/−Rdh8−/− mice [6]): significantly reduced formation of autofluorescence spots

CN1CCC(c2cn(C)c3ccc(OS(=O)(=O)c4c(F)cccc4F)cc23)CC1 [SGS 518 oxalate]
retinal / photoreceptor morphology by OCT imaging (Abca4−/−Rdh8−/− mice [4]): profound preservation of photoreceptor morphology
retinal histology / immunohistochemistry (rhodopsin, PNA, DAPI; ONL) (Abca4−/−Rdh8−/− mice [2]): substantially preserved photoreceptor morphology
retinal autofluorescence spots by SLO imaging (Abca4−/−Rdh8−/− mice [6]): significantly reduced formation of autofluorescence spots

COc1ccc2c(c1)CC[C@@H]1[C@@H]2CC[C@]2(C)[C@@H](NCCCCCCN3C(=O)C=CC3=O)CC[C@@H]12 [U-73122, 1-(6-((17β-3-methoxyestra-1,3,5(10)-trien-17-yl)amino)hexyl)-1H-pyrrole-2,5-dione]
retinal histology / immunohistochemistry (rhodopsin, PNA, DAPI; ONL) (Abca4−/−Rdh8−/− mice [2]): markedly less light-induced photoreceptor damage
retinal function by ERG (a-wave and b-wave amplitudes) (Abca4−/−Rdh8−/− mice [3]): protective effect

COC(=O)[C@@H]1[C@H]2C[C@H]3c4[nH]c5ccccc5c4CCN3C[C@@H]2CC[C@@H]1O.Cl [Yohimbine]
Effect (effectiveness at preventing light-induced photoreceptor degeneration as measured by OCT imaging) (Abca4−/−Rdh8−/− mice [4]): toxic

CC1=C(/C=C/C(C)=C/C=C/C(C)=C/C=O)C(C)(C)CCC1 [atRAL, all-trans-retinal]
intracellular ROS production (ARPE19 cells): significantly elevated intracellular ROS production

O=C(c1ccc(F)cc1)C1CCN(CCn2c(=O)[nH]c3ccccc3c2=O)CC1 [ketanserin]
retinal histology / immunohistochemistry (rhodopsin, PNA, DAPI; ONL) (Abca4−/−Rdh8−/− mice [2]): substantial protective effect
retinal function by ERG (a-wave and b-wave amplitudes) (Abca4−/−Rdh8−/− mice [3]): protective effect

Cc1nc2sccn2c(=O)c1CCN1CCC(=C(c2ccc(F)cc2)c2ccc(F)cc2)CC1 [ritanserin, Ritanserin]
retinal / photoreceptor morphology by OCT imaging (Abca4−/−Rdh8−/− mice [4]): substantially protected photoreceptors from light-induced degeneration
retinal function by ERG (a-wave and b-wave amplitudes) (Abca4−/−Rdh8−/− mice [3]): protective effect

Eltoprazine
Effect (effectiveness at preventing light-induced photoreceptor degeneration as measured by OCT imaging) (Abca4−/−Rdh8−/− mice [4]): 20%
